From patent US9163256B2, “Mutant receptors and their use in a nuclear receptor-based inducible gene expression system” (priority 2004, dated 2015)
Where two headings read alike, the source gives them in different places.

Key:
[1] = target: CfEcR-DEF mutant A110P (Choristoneura fumiferana, UniProt O77255, A393P); experiment: cell-based
Procedure: (§1) This construct was prepared in the same way as in switch 1.1 above except wild-type CfEcR-DEF was replaced with mutant CfEcR-DEF comprising a ligand binding domain comprising a substitution mutation selected from Table 1 below.
(§2) DNAs were transfected into mouse NIH3T3 cells (ATCC) as follows. Standard methods for culture and maintenance of the cells were followed. Cells were harvested and plated 96-well plates at 2,500 cells per well, in 50 μL of growth medium containing 10% fetal bovine serum (FBS). Twenty-four hours later, the cells were treated with 35 μL of serum-free growth medium containing either dimethylsulfoxide (DMSO; control) or a DMSO solution of ligand. The cells were then transfected using Superfect (Qiagen Inc.) transfection reagent. For each well, 0.625 μL of Superfect was mixed with 14.2 μL of serum-free growth medium. 0.16 μg of reporter construct and 0.04 μg of each receptor construct were added to the transfection reagent mix. The contents of the transfection mix were mixed in a vortex mixer and let stand at room temperature for 30 minutes. At the end of incubation, 15 μL of transfection mix was added to the cells. The cells were maintained at 37° C. and 5% CO2 for 48 hours in 5% FBS.
(§3) Reporter Assays: Cells were harvested 40 hours after adding ligands. 125 μL of passive lysis buffer (part of Dual-Luciferase reporter assay system from Promega Corporation) were added to each well of the […] plate. The plates were placed on a rotary shaker for 15 minutes. Twenty μL of lysate were assayed. Luciferase activity was measured using Dual-Luciferase reporter assay system from Promega Corporation following the manufacturer's instructions. Fold induction (FI) activities were calculated by dividing relative light units (“RLU”) in ligand treated cells with RLU in DMSO treated cells (untreated control).

[2] = target: CfEcR-DEF mutant F48L (Choristoneura fumiferana, UniProt O77255, F331L); experiment: cell-based
CfEcR-DEF mutant F48L, sequence (P28702 299-449): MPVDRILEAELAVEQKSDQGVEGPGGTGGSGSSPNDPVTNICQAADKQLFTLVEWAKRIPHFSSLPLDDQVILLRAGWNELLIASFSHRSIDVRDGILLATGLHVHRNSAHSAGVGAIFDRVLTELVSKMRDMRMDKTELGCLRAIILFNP
CfEcR-DEF mutant F48L, sequence (O77255 entry or part of it F331L): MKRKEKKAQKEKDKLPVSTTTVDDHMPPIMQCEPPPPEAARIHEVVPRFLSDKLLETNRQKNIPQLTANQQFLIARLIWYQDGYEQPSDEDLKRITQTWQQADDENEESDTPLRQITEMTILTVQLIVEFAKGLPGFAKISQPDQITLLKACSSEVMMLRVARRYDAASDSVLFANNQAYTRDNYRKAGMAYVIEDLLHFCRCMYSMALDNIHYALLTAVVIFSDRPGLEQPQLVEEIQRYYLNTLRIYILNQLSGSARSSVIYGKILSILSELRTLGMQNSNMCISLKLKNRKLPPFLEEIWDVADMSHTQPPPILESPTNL
Procedure: as §1, §2, §3

[3] = target: CfEcR-DEF mutant L234M (Choristoneura fumiferana, UniProt O77255, L517M); experiment: cell-based
CfEcR-DEF mutant L234M, sequence (P28702 299-449): as the sequence (P28702 299-449) above
CfEcR-DEF mutant L234M, sequence (O77255 entry or part of it L517M): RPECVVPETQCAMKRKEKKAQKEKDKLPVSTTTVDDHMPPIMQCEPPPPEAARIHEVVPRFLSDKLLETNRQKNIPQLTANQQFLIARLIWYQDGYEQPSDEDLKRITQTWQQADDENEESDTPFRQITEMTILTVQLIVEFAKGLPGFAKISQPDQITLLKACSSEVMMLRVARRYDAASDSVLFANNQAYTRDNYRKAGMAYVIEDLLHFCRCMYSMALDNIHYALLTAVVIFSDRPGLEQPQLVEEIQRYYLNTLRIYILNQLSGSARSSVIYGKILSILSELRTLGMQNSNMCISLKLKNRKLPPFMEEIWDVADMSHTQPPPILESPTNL
Procedure: as §1, §2, §3

[4] = target: CfEcR-DEF mutant M125R (Choristoneura fumiferana, UniProt O77255, M408R); experiment: cell-based
CfEcR-DEF mutant M125R, sequence (P28702 299-449): as the sequence (P28702 299-449) above
CfEcR-DEF mutant M125R, sequence (O77255 entry or part of it M408R): as the sequence (O77255 entry or part of it F331L) above, with L113F, M190R counted along it
Procedure: as §1, §2, §3

[5] = target: CfEcR-DEF mutant M92L (Choristoneura fumiferana, UniProt O77255, M375L); experiment: cell-based
CfEcR-DEF mutant M92L, sequence (O77255 entry or part of it M375L): as the sequence (O77255 entry or part of it F331L) above, with L113F, M157L counted along it
CfEcR-DEF mutant M92L, sequence (P28702 299-449, further chain): as the sequence (P28702 299-449) above
Procedure: as §1, §2, §3

[6] = target: CfEcR-DEF mutant T52E (Choristoneura fumiferana, UniProt O77255, T335E); experiment: cell-based
CfEcR-DEF mutant T52E, sequence (O77255 entry or part of it T335E): as the sequence (O77255 entry or part of it F331L) above, with L113F, T117E counted along it
CfEcR-DEF mutant T52E, sequence (P28702 299-449, further chain): as the sequence (P28702 299-449) above
Procedure: as §1, §2, §3

[7] = target: CfEcR-DEF mutant A110N (Choristoneura fumiferana, UniProt O77255, A393N); experiment: cell-based; set-up: Concentration (mM) at max FI: unit not given here
CfEcR-DEF mutant A110N, sequence (O77255 entry or part of it A393N): as the sequence (O77255 entry or part of it L517M) above, with A187N, M311L counted along it
CfEcR-DEF mutant A110N, sequence (P28702 299-449, stated change not applied, further chain): as the sequence (P28702 299-449) above
Procedure: as §1, §2, §3

[8] = target: CfEcR-DEF mutant F109M (Choristoneura fumiferana, UniProt O77255, F392M); experiment: cell-based; set-up: Concentration (mM) at max FI: unit not given here
CfEcR-DEF mutant F109M, sequence (O77255 entry or part of it F392M): as the sequence (O77255 entry or part of it L517M) above, with F186M, M311L counted along it
CfEcR-DEF mutant F109M, sequence (P28702 299-449, further chain): as the sequence (P28702 299-449) above
Procedure: as §1, §2, §3

[9] = target: CfEcR-DEF mutant F48W (Choristoneura fumiferana, UniProt O77255, F331W); experiment: cell-based; set-up: Concentration (mM) at max FI: unit not given here
CfEcR-DEF mutant F48W, sequence (P28702 299-449): as above
CfEcR-DEF mutant F48W, sequence (O77255 entry or part of it F331W): as the sequence (O77255 entry or part of it L517M) above, with F125W, M311L counted along it
Procedure: as §1, §2, §3

[10] = target: CfEcR-DEF mutant F48Y (Choristoneura fumiferana, UniProt O77255, F331Y); experiment: cell-based; set-up: Concentration (mM) at max FI: unit not given here
CfEcR-DEF mutant F48Y, sequence (O77255 entry or part of it F331Y): as the sequence (O77255 entry or part of it L517M) above, with F125Y, M311L counted along it
CfEcR-DEF mutant F48Y, sequence (P28702 299-449, further chain): as the sequence (P28702 299-449) above
Procedure: as §1, §2, §3

[11] = target: CfEcR-DEF mutant T52P (Choristoneura fumiferana, UniProt O77255, T335P); experiment: cell-based; set-up: Concentration (mM) at max FI: unit not given here
CfEcR-DEF mutant T52P, sequence (P28702 298-449): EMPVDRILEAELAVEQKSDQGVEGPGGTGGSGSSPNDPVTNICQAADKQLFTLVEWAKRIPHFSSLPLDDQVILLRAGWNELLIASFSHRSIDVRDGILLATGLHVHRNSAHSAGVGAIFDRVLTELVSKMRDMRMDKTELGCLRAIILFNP
CfEcR-DEF mutant T52P, sequence (O77255 entry or part of it T335P): as the sequence (O77255 entry or part of it L517M) above, with T129P, M311L counted along it
Procedure: as §1, §2, §3

[12] = target: CfEcR-DEF mutant V128F (Choristoneura fumiferana, UniProt O77255, V411F); experiment: cell-based; set-up: Concentration (mM) at max FI: unit not given here
CfEcR-DEF mutant V128F, sequence (P28702 299-449): as the sequence (P28702 299-449) above
CfEcR-DEF mutant V128F, sequence (O77255 entry or part of it V411F): as the sequence (O77255 entry or part of it F331L) above, with L113F, V193F counted along it
Procedure: as §1, §2, §3

[13] = target: CfEcR-DEF mutant V96E (Choristoneura fumiferana, UniProt O77255, V379E); experiment: cell-based; set-up: Concentration (mM) at max FI: unit not given here
CfEcR-DEF mutant V96E, sequence (O77255 entry or part of it V379E): as the sequence (O77255 entry or part of it F331L) above, with L113F, V161E counted along it
CfEcR-DEF mutant V96E, sequence (P28702 299-449, further chain): as the sequence (P28702 299-449) above
Procedure: as §1, §2, §3

[14] = target: CfEcR-DEF mutant W238E (Choristoneura fumiferana, UniProt O77255, W521E); experiment: cell-based; set-up: Concentration (mM) at max FI: unit not given here
CfEcR-DEF mutant W238E, sequence (P28702 299-449): as above
CfEcR-DEF mutant W238E, sequence (O77255 entry or part of it W521E): as the sequence (O77255 entry or part of it F331L) above, with L113F, W303E counted along it
Procedure: as §1, §2, §3

[15] = target: CfEcR-DEF mutant Y120M (Choristoneura fumiferana, UniProt O77255, Y403M); experiment: cell-based; set-up: Concentration (mM) at max FI: unit not given here
CfEcR-DEF mutant Y120M, sequence (O77255 entry or part of it Y403M): as the sequence (O77255 entry or part of it F331L) above, with L113F, Y185M counted along it
CfEcR-DEF mutant Y120M, sequence (P28702 299-449, further chain): as the sequence (P28702 299-449) above
Procedure: as §1, §2, §3

[16] = target: CfEcR-DEF mutant V107I/Y127E/G (Choristoneura fumiferana, UniProt O77255, INS541G/V390I/Y410E); experiment: GAL4-driven luciferase reporter assay in NIH3T3 cells; assay type: cell-based
CfEcR-DEF mutant V107I/Y127E/G, sequence (P28702 299-449, stated change not applied): as the sequence (P28702 299-449) above
CfEcR-DEF mutant V107I/Y127E/G, sequence (O77255 entry or part of it V390I/Y410E/INS541G): as the sequence (O77255 entry or part of it F331L) above, with L113F counted along it
Procedure: as §1
The Gal-4-CfEcR-DEF(VYG) mutant was created by inserting an extra glycine at the C-terminal end of EcR substitution mutant V107I/Y127E [CfECR(VY)] by PCR. Essentially, this was done in two steps: PCR-amplification of CfEcR-DEF(VYG) and substitution of the CfEcR(VY) in the vector GAL4-CfEcR DEF(VY) pBIND 1-9 with the PCR-amplified CfEcR-DEF(VYG). The CfEcR-DEF region (with the extra glycine) was amplified by using the vector GAL4-CfEcR DEF(VY) pBIND 1-9 as template and the following PCR primers: […]
as §2, §3

[17] = target: CfEcR-DEF mutant L132M (Choristoneura fumiferana, UniProt O77255, L415M); experiment: cell-based; assay type: cell-based; settings: for Emax: NIH3T3, 40 h, read-out: Rel Max FI, mutant L132M
CfEcR-DEF mutant L132M, sequence (O77255 entry or part of it L415M): as the sequence (O77255 entry or part of it L517M) above, with L209M, M311L counted along it
CfEcR-DEF mutant L132M, sequence (P28702 298-449, further chain): as the sequence (P28702 298-449) above
Procedure: as §1, §2, §3

[18] = NIH3T3, 40 h, read-out: Rel Max FI
[19] = NIH3T3, mouse, 40 h, read-out: GS-E ligand max FI (relative to DMSO)

CfEcR-DEF mutant A110P, sequence (O77255 entry or part of it A393P): as the sequence (O77255 entry or part of it L517M) above, with A187P, M311L counted along it
CfEcR-DEF mutant A110P, sequence (P28702 299-449, stated change not applied, further chain): as the sequence (P28702 299-449) above

`CCc1c(OC)cccc1C(=O)NN(C(=O)c1cc(C)cc(C)c1)C(C)(C)C` [RG-102240, N-(2-ethyl-3-methoxybenzoyl)-N′-(3,5-dimethylbenzoyl)-N′-tert-butylhydrazine] gave an EC50 [1] of 550 nM, an Emax [1, 18] of 100% and a maximal fold induction [1, 19] of 2290. The EC50 [2] was 460 nM, the Emax [2, 18] was 100% and the maximal fold induction [2, 19] was 2600. The “Concentration (mM) at max FI” value ([2]; mutant F48L, GS-E ligand) was 0.0333 mM, the EC50 [3] was 1430 nM and the Emax [3, 18] was 100%. The maximal fold induction [3, 19] was 4580, the “Concentration (mM) at max FI” value ([3]; mutant L234M, GS-E ligand) was 33.30 mM and the EC50 [4] was 3700 nM. For the same molecule, the Emax [4, 18] was 0%, the maximal fold induction [4, 19] was 2410 and the “Concentration (mM) at max FI” value ([4]; mutant M125R, GS-E ligand) was 33.3 mM. It also gave an EC50 [5] of roughly 8000 nM, an Emax [5, 18] of 100% and a maximal fold induction [5, 19] of 1200. For the same molecule, the “Concentration (mM) at max FI” value ([5]; mutant M92L, GS-E ligand) was 33.30 mM, the EC50 [6] was roughly 7000 nM and the Emax [6, 18] was 100%. The maximal fold induction [6, 19] was 1540, the “Concentration (mM) at max FI” value ([6]; mutant T52E, GS-E ligand) was 33.3 mM and the EC50 [7] was 1410 nM. The Emax [7, 18] was 100%, the maximal fold induction [7, 19] was 1680 and the “Concentration (mM) at max FI” value ([7]; mutant A110N, GS-E ligand) was 10.00. For the same molecule, the EC50 [8] was 660 nM, the Emax [8, 18] was 100% and the maximal fold induction [8, 19] was 1480. The “Concentration (mM) at max FI” value ([8]; mutant F109M, GS-E ligand) was 3.3, the EC50 [9] was roughly 1000 nM and the Emax [9, 18] was 100%. The maximal fold induction [9, 19] was 1640, the “Concentration (mM) at max FI” value ([9]; mutant F48W, GS-E ligand) was 33.3 and the EC50 [10] was 1270 nM. For the same molecule, the Emax [10, 18] was 100%, the maximal fold induction [10, 19] was 1360 and the “Concentration (mM) at max FI” value ([10]; mutant F48Y, GS-E ligand) was 33.3. For the same molecule, the EC50 [11] was roughly 10000 nM, the Emax [11, 18] was 100% and the maximal fold induction [11, 19] was 301. The “Concentration (mM) at max FI” value ([11]; mutant T52P, GS-E ligand) was 33.3, the EC50 ([12]; EC50, mutant V128F) was greater than 33000 nM and the Emax [12, 18] was 0%. For the same molecule, the maximal fold induction [12, 19] was 550, the “Concentration (mM) at max FI” value ([12]; mutant V128F, GS-E ligand) was 33.30 and the EC50 [13] was roughly 2000 nM. For the same molecule, the Emax [13, 18] was 100%, the maximal fold induction [13, 19] was 2960 and the “Concentration (mM) at max FI” value ([13]; mutant V96E, GS-E ligand) was 33.30. The EC50 [14] was roughly 6000 nM, the Emax [14, 18] was 100% and the maximal fold induction [14, 19] was 1020. For the same molecule, the “Concentration (mM) at max FI” value ([14]; mutant W238E, GS-E ligand) was 33.3, the EC50 [15] was roughly 4000 nM and the Emax [15, 18] was 100%. The maximal fold induction [15, 19] was 1710, the “Concentration (mM) at max FI” value ([15]; mutant Y120M, GS-E ligand) was 33.3 and the EC50 [16] was 170 nM. The Emax [16, 18] was 100%, the Emax [17] was 100% and the Emax ([17]; relative to max fold induction of GS-E ligand) was 100%. The maximal fold induction [17, 19] was 1520 and the “Concentration at max FI” value ([17]; mutant L132M, GS-E ligand) was 10.00 mM.
